Read-outs that look alike come from different tables or passages of the source.

One may read the IC50 as the midpoint of a concentration-inhibition curve.

The test addresses Rat recombinant DYRK1A (Rattus norvegicus, UniProt Q63470). The experiment in a line: Assaying of the kinase activity of DYRK1A (33P-ATP, myelin basic protein, P81 filter).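 Also: GST fusion rat DYRK1A made in E. coli, scintillation counting of label bound to substrate, activity as percent of the inhibitor-free maximum after blank subtraction.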 In kind it is biochemical.
[1] abbreviates: 15 μM ATP, 30° C., 30 min, read-out: IC50 DYRK1A.

Description: Rat recombinant DYRK1A was expressed in E. coli as a GST fusion protein. It was purified by affinity chromatography on beads of immobilized glutathione (elution with free glutathione). […] After incubation at 30° C. for 30 min, 25-μL aliquots of supernatant were spotted onto Whatman P81 phosphocellulose filters and the filters were washed five times in a solution of phosphoric acid (10 ml/L water). The radioactivity incorporated into the substrate, retained on the moist filters, was then counted in the presence of ACS scintillation fluid (Amersham). The control values were subtracted and the activities were expressed as % of the maximum value, i.e. the value obtained in the absence of inhibitors. The IC50 values were calculated from dose-response curves and are given in μM.

`CCOC(=O)CSC1=N/C(=C\c2ccc3c(c2)OCO3)C(=O)N1c1ccccc1` [JR411]: under setting [1], the half-maximal inhibitory concentration (IC50) is greater than 10000 nM.

As to `O=C1NC(NCC2CC2)=N/C1=C\c1ccc2c(c1)OCO2` [FC114], under setting [1], the IC50 amounted to 500 nM. Turning to `CN1C(=O)/C(=C/c2ccc3c(c2)OCO3)N=C1NC(=O)c1ccccc1` [IA33], under setting [1], the IC50 was greater than 10000 nM. For `CCCCN1C(=O)/C(=C/c2ccc3c(c2)OCO3)N=C1SCc1ccc([N+](=O)[O-])cc1` [SB60], the IC50 under setting [1] is greater than 10000 nM.

`O=C1NC(=S)N/C1=C\c1c[nH]c2ccccc12` [ST195]: under setting [1], the IC50 was greater than 10000 nM.

Turning to `CN1C(=O)/C(=C/c2ccc3c(c2)OCO3)N=C1c1ccc(O)cc1` [NL96], under setting [1], the IC50 came to 430 nM.

In the case of `O=C1NC(=S)N/C1=C\c1cc(Br)c2c(c1)OCO2` [ST279], under setting [1], the IC50 was greater than 10000 nM. In the case of `C#CCSC1=N/C(=C\c2ccc3c(c2)OCO3)C(=O)N1CCCC` [SB22], the IC50 under setting [1] is greater than 10000 nM. With `CNC1=N/C(=C\c2ccc3c(c2)OCO3)C(=O)N1` [FC085], the half-maximal inhibitory concentration (IC50) under setting [1] was 1700 nM. For the compound `CCCCN1C(=O)/C(=C/c2ccc3c(c2)OCO3)N=C1NCCCO` [SA164], the IC50 under setting [1] was greater than 10000 nM. As for `CCCCN1C(=O)/C(=C/c2cc3c(cc2Br)OCO3)N=C1SCC` [SB80], the IC50 under setting [1] is greater than 10000 nM. Same read-out and setting: the value for `CCCSC1=N/C(=C\c2ccc3c(c2)OCO3)C(=O)N1` [ST122] was 440 nM. `CCSC1=N/C(=C\c2cc(OC)cc(OC)c2)C(=O)N1C` [SB56]: the IC50 under setting [1] was greater than 10000 nM. For `CCCNC1=N/C(=C\c2ccc3c(c2)OCO3)C(=O)N1` [FC126], the 50% inhibitory concentration (IC50) under setting [1] is 890 nM. Turning to `CNC1=N/C(=C\c2ccc3c(c2)OCO3)C(=O)N1C` [FC084], the IC50 (IC50 DYRK1A) was determined as 2700 nM.

With `CC(C)CCNC1=N/C(=C\c2ccc3c(c2)OCO3)C(=O)N1C` [ST025], under setting [1], the 50% inhibitory concentration (IC50) was 1700 nM.

Turning to `CC(C)SC1=N/C(=C\c2ccc3c(c2)OCO3)C(=O)N1C` [ST097], under setting [1], the IC50 came out at 1300 nM. As to `CN1C(=O)/C(=C/c2ccc3c(c2)OCO3)N=C1Nc1ccc(CC(=O)O)cc1` [MADE34], the IC50 under setting [1] is 860 nM. On to `COCCNC1=N/C(=C\c2ccc3c(c2)OCO3)C(=O)N1C` [FC103], for which, under setting [1], the IC50 turned out to be 1200 nM.

As for `CCSC1=N/C(=C\c2ccc3c(c2)OC(F)(F)O3)C(=O)N1C` [ST091], the IC50 under setting [1] was greater than 10000 nM. Take `CN1C(=O)/C(=C/c2ccc3c(c2)OCO3)NC1=S` [ST223]: the IC50 under setting [1] was greater than 10000 nM. Turning to `COc1ccc(NC2=N/C(=C\c3ccc4c(c3)OCO4)C(=O)N2C)cc1` [MADE39], under “IC50 DYRK1A”, the IC50 was found to be 270 nM. Consider `COc1cc(/C=C2\NC(=S)NC2=O)ccc1O` [ST202], for which, under setting [1], the IC50 is greater than 10000 nM. Still for that read-out and setting: the value for `CCNC1=N/C(=C\c2ccc3c(c2)OCO3)C(=O)N1C` [FC088] was 900 nM; that for `CN1C(=O)/C(=C/c2cc(Br)c3c(c2)OCO3)NC1=S` [ST341] was greater than 10000 nM; that for `CCNC1=N/C(=C\c2ccc3c(c2)OCO3)C(=O)N1` [FC090, (5Z)-5-Benzo[1,3]dioxol-5-ylmethylene-2-ethylamino-3,5-dihydro-4H-imidazol-4-one] was 1100 nM. In the case of `CCSC1=N/C(=C\c2cc(Br)c3c(c2)OCO3)C(=O)N1` [ST280], the IC50 under setting [1] was greater than 10000 nM.

Source of the values: patent publication US8563588B2, “Imidazolone derivatives, method for the preparation thereof and biological applications” (Universite de Rennes 1, priority 2007, dated 2013).
